Data taken from US6096930A, “Herbicidal cyclohexane-1,3-dione derivatives and their preparation process” (Korea Research Institute of Chemical Technology, priority 1994, dated 2000).

What was measured:
Type in all cases: in vivo
ZEAMX [1] = assay: Herbicidal activity, upland test, pre-emergence
Protocol: (§1) The sterilized sandy loam soil is filled in test pot having a surface area of 348 cm^2 for upland test conditions or 115 cm^2 for paddy test species were planted in furrows.
(§2) For the pre-emergent tests, were sprayed on the soil one day after planting test compound in a mixture of acetone and 7 ml of the water containing up to 0.1% Tween 20.
(§3) The concentration of the test compound in solution was varied to give a range of application rates, generally 4.0 kg/ha and submultiples thereof. The pots were placed in a greenhouse and watered regularly at the soil surface for 21 days and herbicidal effects were visually rated by a percent control.
(§4) The herbicidal activity data were taken visually by percent control, wherein 0 signifies no herbicidal effect and 100 signifies complete kill.

TRZAW [2] = assay: Herbicidal activity, upland test, pre-emergence
Protocol: as §1, §2, §3, §4

PANDI [3] = assay: Herbicidal activity, upland test, pre-emergence
Protocol: as §1, §2, §3, §4

ORYSA [4] = assay: Herbicidal activity, upland test, pre-emergence
Protocol: as §1, §2, §3, §4

BROJA [5] = assay: Herbicidal activity, upland test, pre-emergence
Protocol: as §1, §2, §3, §4

GLXMX [6] = assay: Herbicidal activity, upland test, pre-emergence
Protocol: as §1, §2, §3, §4

ABUTH [7] = assay: Herbicidal activity, upland test, pre-emergence
Protocol: as §1, §2, §3, §4

SORBI [8] = assay: Herbicidal activity, upland test, pre-emergence
Protocol: as §1, §2, §3, §4

DIGSA [9] = assay: Herbicidal activity, upland test, pre-emergence
Protocol: as §1, §2, §3, §4

AESIN [10] = assay: Herbicidal activity, upland test, pre-emergence
Protocol: as §1, §2, §3, §4

GOSHI [11] = assay: Herbicidal activity, upland test, pre-emergence
Protocol: as §1, §2, §3, §4

ECHOR [12] = assay: Herbicidal activity, upland test, pre-emergence
Protocol: as §1, §2, §3, §4

SOLNI [13] = assay: Herbicidal activity, upland test, pre-emergence
Protocol: as §1, §2, §3, §4

ZEAMX [14] = assay: Herbicidal activity, upland test, post-emergence
Description: as §1
(§5) The pots for the post-emergent tests were placed in a greenhouse and watered for 9~14 days, then the foliage of test plants was sprayed with a solution of the test compound in a mixture of acetone and water containing a small amount of Tween 20.
(§6) After spraying the plants were kept for one day, then watered regularly for 14 to 21 days, and herbicidal activity data were recorded.
as §4

TRZAW [15] = assay: Herbicidal activity, upland test, post-emergence
Description: as §1, §5, §6, §4

PANDI [16] = assay: Herbicidal activity, upland test, post-emergence
Description: as §1, §5, §6, §4

ORYSA [17] = assay: Herbicidal activity, upland test, post-emergence
Description: as §1, §5, §6, §4

BROJA [18] = assay: Herbicidal activity, upland test, post-emergence
Description: as §1, §5, §6, §4

GLXMX [19] = assay: Herbicidal activity, upland test, post-emergence
Description: as §1, §5, §6, §4

ABUTH [20] = assay: Herbicidal activity, upland test, post-emergence
Description: as §1, §5, §6, §4

SORBI [21] = assay: Herbicidal activity, upland test, post-emergence
Description: as §1, §5, §6, §4

DIGSA [22] = assay: Herbicidal activity, upland test, post-emergence
Description: as §1, §5, §6, §4

AESIN [23] = assay: Herbicidal activity, upland test, post-emergence
Description: as §1, §5, §6, §4

GOSHI [24] = assay: Herbicidal activity, upland test, post-emergence
Description: as §1, §5, §6, §4

ECHOR [25] = assay: Herbicidal activity, upland test, post-emergence
Description: as §1, §5, §6, §4

SOLNI [26] = assay: Herbicidal activity, upland test, post-emergence
Description: as §1, §5, §6, §4

## CCC(=NOC)C1=C(O)CC(c2c(C)c(C)c3c(c2C)CC(C)(C)C3)CC1=O (centres unmarked) [Compound 1]
ZEAMX [1]; 0.016 kg/ha
  Herbicidal activity, ZEAMX: 0 % inhibition
ZEAMX [1]; 0.063 kg/ha
  Herbicidal activity, ZEAMX: 0 % inhibition
ZEAMX [1]; 1.000 kg/ha
  Herbicidal activity, ZEAMX: 60 % inhibition
ZEAMX [1]; 1.250 kg/ha
  Herbicidal activity, ZEAMX: 10 % inhibition
TRZAW [2]; 0.016 kg/ha
  Herbicidal activity, TRZAW: 0 % inhibition
TRZAW [2]; 0.063 kg/ha
  Herbicidal activity, TRZAW: 0 % inhibition
TRZAW [2]; 1.000 kg/ha
  Herbicidal activity, TRZAW: 60 % inhibition
TRZAW [2]; 1.250 kg/ha
  Herbicidal activity, TRZAW: 20 % inhibition
PANDI [3]; 0.016 kg/ha
  Herbicidal activity, PANDI: 0 % inhibition
PANDI [3]; 0.063 kg/ha
  Herbicidal activity, PANDI: 100 % inhibition
PANDI [3]; 1.000 kg/ha
  Herbicidal activity, PANDI: 100 % inhibition
PANDI [3]; 1.250 kg/ha
  Herbicidal activity, PANDI: 100 % inhibition
ORYSA [4]; 0.016 kg/ha
  Herbicidal activity, ORYSA: 0 % inhibition
ORYSA [4]; 0.063 kg/ha
  Herbicidal activity, ORYSA: 30 % inhibition
ORYSA [4]; 1.000 kg/ha
  Herbicidal activity, ORYSA: 100 % inhibition
ORYSA [4]; 1.250 kg/ha
  Herbicidal activity, ORYSA: 100 % inhibition
BROJA [5]; 0.016 kg/ha
  Herbicidal activity, BROJA: 0 % inhibition
BROJA [5]; 0.063 kg/ha
  Herbicidal activity, BROJA: 0 % inhibition
BROJA [5]; 1.000 kg/ha
  Herbicidal activity, BROJA: 100 % inhibition
BROJA [5]; 1.250 kg/ha
  Herbicidal activity, BROJA: 40 % inhibition
GLXMX [6]; 0.016 kg/ha
  Herbicidal activity, GLXMX: 0 % inhibition
GLXMX [6]; 0.063 kg/ha
  Herbicidal activity, GLXMX: 0 % inhibition
GLXMX [6]; 1.000 kg/ha
  Herbicidal activity, GLXMX: 0 % inhibition
GLXMX [6]; 1.250 kg/ha
  Herbicidal activity, GLXMX: 0 % inhibition
ABUTH [7]; 0.016 kg/ha
  Herbicidal activity, ABUTH: 0 % inhibition
ABUTH [7]; 0.063 kg/ha
  Herbicidal activity, ABUTH: 0 % inhibition
ABUTH [7]; 1.000 kg/ha
  Herbicidal activity, ABUTH: 0 % inhibition
ABUTH [7]; 1.250 kg/ha
  Herbicidal activity, ABUTH: 0 % inhibition
SORBI [8]; 0.016 kg/ha
  Herbicidal activity, SORBI: 0 % inhibition
SORBI [8]; 0.063 kg/ha
  Herbicidal activity, SORBI: 0 % inhibition
SORBI [8]; 1.000 kg/ha
  Herbicidal activity, SORBI: 60 % inhibition
SORBI [8]; 1.250 kg/ha
  Herbicidal activity, SORBI: 20 % inhibition
DIGSA [9]; 0.016 kg/ha
  Herbicidal activity, DIGSA: 0 % inhibition
DIGSA [9]; 0.063 kg/ha
  Herbicidal activity, DIGSA: 30 % inhibition
DIGSA [9]; 1.000 kg/ha
  Herbicidal activity, DIGSA: 100 % inhibition
DIGSA [9]; 1.250 kg/ha
  Herbicidal activity, DIGSA: 70 % inhibition
AESIN [10]; 0.016 kg/ha
  Herbicidal activity, AESIN: 0 % inhibition
AESIN [10]; 0.063 kg/ha
  Herbicidal activity, AESIN: 0 % inhibition
AESIN [10]; 1.000 kg/ha
  Herbicidal activity, AESIN: 0 % inhibition
AESIN [10]; 1.250 kg/ha
  Herbicidal activity, AESIN: 0 % inhibition
GOSHI [11]; 0.016 kg/ha
  Herbicidal activity, GOSHI: 0 % inhibition
GOSHI [11]; 0.063 kg/ha
  Herbicidal activity, GOSHI: 0 % inhibition
GOSHI [11]; 1.000 kg/ha
  Herbicidal activity, GOSHI: 0 % inhibition
GOSHI [11]; 1.250 kg/ha
  Herbicidal activity, GOSHI: 0 % inhibition
ECHOR [12]; 0.016 kg/ha
  Herbicidal activity, ECHOR: 0 % inhibition
ECHOR [12]; 0.063 kg/ha
  Herbicidal activity, ECHOR: 30 % inhibition
ECHOR [12]; 1.000 kg/ha
  Herbicidal activity, ECHOR: 100 % inhibition
ECHOR [12]; 1.250 kg/ha
  Herbicidal activity, ECHOR: 80 % inhibition
SOLNI [13]; 0.016 kg/ha
  Herbicidal activity, SOLNI: 0 % inhibition
SOLNI [13]; 0.063 kg/ha
  Herbicidal activity, SOLNI: 0 % inhibition
SOLNI [13]; 1.000 kg/ha
  Herbicidal activity, SOLNI: 0 % inhibition
SOLNI [13]; 1.250 kg/ha
  Herbicidal activity, SOLNI: 0 % inhibition
ZEAMX [14]; 0.016 kg/ha
  Herbicidal activity, ZEAMX: 0 % inhibition
ZEAMX [14]; 0.063 kg/ha
  Herbicidal activity, ZEAMX: 30 % inhibition
ZEAMX [14]; 1.000 kg/ha
  Herbicidal activity, ZEAMX: 100 % inhibition
ZEAMX [14]; 1.250 kg/ha
  Herbicidal activity, ZEAMX: 100 % inhibition
TRZAW [15]; 0.016 kg/ha
  Herbicidal activity, TRZAW: 30 % inhibition
TRZAW [15]; 0.063 kg/ha
  Herbicidal activity, TRZAW: 40 % inhibition
TRZAW [15]; 1.000 kg/ha
  Herbicidal activity, TRZAW: 100 % inhibition
TRZAW [15]; 1.250 kg/ha
  Herbicidal activity, TRZAW: 60 % inhibition
PANDI [16]; 0.016 kg/ha
  Herbicidal activity, PANDI: 40 % inhibition
PANDI [16]; 0.063 kg/ha
  Herbicidal activity, PANDI: 100 % inhibition
PANDI [16]; 1.000 kg/ha
  Herbicidal activity, PANDI: 100 % inhibition
PANDI [16]; 1.250 kg/ha
  Herbicidal activity, PANDI: 100 % inhibition
ORYSA [17]; 0.016 kg/ha
  Herbicidal activity, ORYSA: 0 % inhibition
ORYSA [17]; 0.063 kg/ha
  Herbicidal activity, ORYSA: 50 % inhibition
ORYSA [17]; 1.000 kg/ha
  Herbicidal activity, ORYSA: 100 % inhibition
ORYSA [17]; 1.250 kg/ha
  Herbicidal activity, ORYSA: 100 % inhibition
BROJA [18]; 0.016 kg/ha
  Herbicidal activity, BROJA: 0 % inhibition
BROJA [18]; 0.063 kg/ha
  Herbicidal activity, BROJA: 40 % inhibition
BROJA [18]; 1.000 kg/ha
  Herbicidal activity, BROJA: 100 % inhibition
BROJA [18]; 1.250 kg/ha
  Herbicidal activity, BROJA: 70 % inhibition
GLXMX [19]; 0.016 kg/ha
  Herbicidal activity, GLXMX: 0 % inhibition
GLXMX [19]; 0.063 kg/ha
  Herbicidal activity, GLXMX: 0 % inhibition
GLXMX [19]; 1.000 kg/ha
  Herbicidal activity, GLXMX: 60 % inhibition
GLXMX [19]; 1.250 kg/ha
  Herbicidal activity, GLXMX: 20 % inhibition
ABUTH [20]; 0.016 kg/ha
  Herbicidal activity, ABUTH: 0 % inhibition
ABUTH [20]; 0.063 kg/ha
  Herbicidal activity, ABUTH: 0 % inhibition
ABUTH [20]; 1.000 kg/ha
  Herbicidal activity, ABUTH: 0 % inhibition
ABUTH [20]; 1.250 kg/ha
  Herbicidal activity, ABUTH: 0 % inhibition
SORBI [21]; 0.016 kg/ha
  Herbicidal activity, SORBI: 0 % inhibition
SORBI [21]; 0.063 kg/ha
  Herbicidal activity, SORBI: 20 % inhibition
SORBI [21]; 1.000 kg/ha
  Herbicidal activity, SORBI: 100 % inhibition
SORBI [21]; 1.250 kg/ha
  Herbicidal activity, SORBI: 60 % inhibition
DIGSA [22]; 0.016 kg/ha
  Herbicidal activity, DIGSA: 70 % inhibition
DIGSA [22]; 0.063 kg/ha
  Herbicidal activity, DIGSA: 100 % inhibition
DIGSA [22]; 1.000 kg/ha
  Herbicidal activity, DIGSA: 100 % inhibition
DIGSA [22]; 1.250 kg/ha
  Herbicidal activity, DIGSA: 100 % inhibition
AESIN [23]; 0.016 kg/ha
  Herbicidal activity, AESIN: 0 % inhibition
AESIN [23]; 0.063 kg/ha
  Herbicidal activity, AESIN: 0 % inhibition
AESIN [23]; 1.000 kg/ha
  Herbicidal activity, AESIN: 0 % inhibition
AESIN [23]; 1.250 kg/ha
  Herbicidal activity, AESIN: 0 % inhibition
GOSHI [24]; 0.016 kg/ha
  Herbicidal activity, GOSHI: 0 % inhibition
GOSHI [24]; 0.063 kg/ha
  Herbicidal activity, GOSHI: 30 % inhibition
GOSHI [24]; 1.000 kg/ha
  Herbicidal activity, GOSHI: 50 % inhibition
GOSHI [24]; 1.250 kg/ha
  Herbicidal activity, GOSHI: 40 % inhibition
ECHOR [25]; 0.016 kg/ha
  Herbicidal activity, ECHOR: 60 % inhibition
ECHOR [25]; 0.063 kg/ha
  Herbicidal activity, ECHOR: 100 % inhibition
ECHOR [25]; 1.000 kg/ha
  Herbicidal activity, ECHOR: 100 % inhibition
ECHOR [25]; 1.250 kg/ha
  Herbicidal activity, ECHOR: 100 % inhibition
SOLNI [26]; 0.016 kg/ha
  Herbicidal activity, SOLNI: 0 % inhibition
SOLNI [26]; 0.063 kg/ha
  Herbicidal activity, SOLNI: 0 % inhibition
SOLNI [26]; 1.000 kg/ha
  Herbicidal activity, SOLNI: 0 % inhibition
SOLNI [26]; 1.250 kg/ha
  Herbicidal activity, SOLNI: 0 % inhibition
